Results on twelve molecules are retold here after ChEMBL document CHEMBL3877275, “Dihydroorotate dehydrogenase: A drug target for the development of antimalarials” (Eur J Med Chem, 2017).

The nature of assay [1]: Inhibition of Plasmodium falciparum DHODH using L-dihydroorotate as substrate after 20 mins by DCIP-based assay.
Assay [2] is described as follows: Inhibition of Plasmodium falciparum DHODH expressed in Escherichia coli using L-dihydroorotate as substrate by DCIP-based spectrophotometric method.
A further assay has as its system Plasmodium falciparum. Nature of the assay: Antiparasitic activity against Plasmodium falciparum NF54 infected in human erythrocytes by [3H]-hypoxanthine incorporation assay. The class given is functional, cell-based.
Assay [3] can be described thus: Inhibition of Plasmodium falciparum DHODH.
Assay [4] in a line: Selectivity ratio of IC50 for human DHODH to IC50 for Plasmodium falciparum DHODH.

As usually defined, the IC50 is the point on the concentration scale where inhibition reaches its midpoint. Lower therefore signals inhibition by little substance.

Regarding `COc1cccc2c1ncn2-c1ccc(C(=O)NC2CC2)s1`, 0.044 µM corresponded to half-maximal inhibition in assay [1] (IC50).
`Cc1cc(Nc2cc(F)c(C(F)(F)F)c(F)c2)n2nc(C(F)(F)F)nc2n1`: in assay [2], half-maximal inhibition (IC50) was put at 0.022 µM.
In the case of `CCOC(=O)C(=CNc1cccc(N(C)C)c1)C(=O)OCC`, the IC50 with Plasmodium falciparum lay within 5 to 12 µM.
As for `Cc1c(C(=O)Nc2cc(Cl)cc(Cl)c2)cccc1[N+](=O)[O-]`, the IC50 in assay [3] is 0.02 to 0.8 µM; with Plasmodium falciparum, 5 to 12 µM. Further, in assay [4], the Ratio IC50 was 70 to 12500.
In the case of `COc1ccc2c(c1)ncn2-c1ccc(C(=O)NC2CC2)s1`, the IC50 in assay [1] turned out to be 0.022 µM.
In assay [2], `Cc1cc(Nc2ccc(C(F)(F)F)cc2)n2ccnc2n1` gave a half-maximal inhibitory concentration (IC50) of 0.77 µM.
Same read-out and setting: then `Cc1cc(Nc2ccc(C(F)(F)F)c(F)c2)n2nc(C(F)(F)F)nc2n1`, with 0.035 µM; and `Cc1cc(Nc2cc(F)c(C(F)(F)F)c(F)c2)n2nc(C(C)(F)F)nc2n1`, with 0.012 µM.
`N#Cc1cccc2c1ncn2-c1ccc(C(=O)NC2CC2)s1` showed a half-inhibitory concentration (IC50) in assay [1] of 0.05 µM.
The molecule `Cc1cc(Nc2ccc(C(F)(F)F)cc2)n2nc(C(F)(F)F)nc2n1` showed an IC50 in assay [2] of 0.035 µM.
Turning to `COc1ccccc1NC(=O)Nc1cccc2ccccc12`, the 50% inhibitory concentration (IC50) in assay [3] was in the range of 0.02 to 0.8 µM; in the assay on Plasmodium falciparum it was 5 to 12 µM. In assay [4], the Ratio IC50 lay within 70 to 12500.
Taken in the same sequence, the figures for `O=C(Nc1ccc(Cl)cc1Cl)c1ccc2ccccc2c1` were 0.02 to 0.8 µM, 5 to 12 µM and 70 to 12500.
